# Results from patent US20230085307A1, “PYRIDAZINONE COMPOUND AND HERBICIDE” (NISSAN CHEMICAL CORPORATION, priority 2019, published 2023).
# Legend:
# [1] = system: barnyard grass; assay: Test Example 3: herbicidal effect by foliage application, Wagner pot (Table 18, symbol H); assay type: in vivo, barnyard grass (Echinochloa crus-galli); details: for herbicidal effect on barnyard grass (H): 320 g/ha
# Outline: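 Plants were sown in alluvial soil held under 0.1–0.5 cm standing water and grown 14 days in a greenhouse at 25–30 °C. An emulsifiable formulation, water-diluted to the set dose, was then sprayed onto the foliage, and effects were scored three weeks later using previously defined criteria.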
# [2] = system: windgrass; assay: Test Example 5: herbicidal effect by foliage application, plastic box (Table 20, symbol L); assay type: in vivo, windgrass (Apera spica-venti); details: for L: windgrass, herbicidal effect grade: foliage application, 320 g/ha, three weeks after application
# Outline: (§1)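 Plants sown in sterilized diluvial soil and grown 14 days in a greenhouse at 25° C to 30° C, then sprayed on the foliage with the compound's emulsion diluted in water to a predetermined herbicide amount. Injury to weeds and crops scored three weeks after application on a visual rating scale.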
# [3] = system: chickweed; assay: Test Example 4: herbicidal effect by soil treatment (Table 19, symbol P); assay type: in vivo, common chickweed (Stellaria media); details: amount of applied herbicide 320 g/ha
# Outline: (§2)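 Seeds were sown in sterilized diluvial soil and covered with about 1.5 cm of soil. An emulsion formulation diluted with water to a predetermined herbicide amount was sprayed evenly onto the soil surface. Plants grew in a greenhouse at 25° C. to 30° C., and the effect was scored three weeks after application using criteria from an earlier test.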
# [4] = system: redroot pigweed; assay: Test Example 5: herbicidal effect by foliage application, plastic box (Table 20, symbol N); assay type: in vivo, redroot pigweed (Amaranthus retroflexus); details: for N: redroot pigweed, herbicidal effect grade: foliage application, 320 g/ha, three weeks after application
# Outline: as §1
# [5] = system: late watergrass; assay: Test Example 1: herbicidal activity, application before weed generation under submerged conditions (Table 16, symbol A); assay type: in vivo, late watergrass (Echinochloa oryzicola); details: amount of applied herbicide 320 g/ha
# Outline: (§3)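 Alluvial soil was flooded to 4 cm depth, weed seeds were sown mixed and 2.5-leaf rice seedlings were transplanted. On sowing day, the compound's emulsion, diluted in water to a set dose, was applied to the water surface. Plants grew at 25–30 °C and were scored 0–5 after three weeks.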
# [6] = system: Italian ryegrass; assay: Test Example 4: herbicidal effect by soil treatment (Table 19, symbol K); assay type: in vivo, Italian ryegrass (Lolium multiflorum); details: amount of applied herbicide 320 g/ha
# Outline: as §2
# [7] = system: lambsquarters; assay: Test Example 4: herbicidal effect by soil treatment (Table 19, symbol O); assay type: in vivo, lambsquarters (Chenopodium album); details: amount of applied herbicide 320 g/ha
# Outline: as §2
# [8] = system: oval-leafed pondweed; assay: Test Example 2: herbicidal activity, application during weed generation under submerged conditions (Table 17, symbol C); assay type: in vivo, oval-leafed pondweed (Monochoria vaginalis); details: AAH 320 g/ha; application during weed generation, submerged conditions
# Outline: (§4)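 Mixed weed seedlings in alluvial soil under a 4 cm water layer, greenhouse-grown at 25–30° C. Compound given as a diluted emulsion into the floodwater at the 1–2 leaf stage; response graded after three weeks.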
# [9] = system: green foxtail; assay: Test Example 5: herbicidal effect by foliage application, plastic box (Table 20, symbol G); assay type: in vivo, green foxtail (Setaria viridis); details: for G: green foxtail, herbicidal effect grade: foliage application, 320 g/ha, three weeks after application
# Outline: as §1
# [10] = system: late watergrass; assay: Test Example 2: herbicidal activity, application during weed generation under submerged conditions (Table 17, symbol A); assay type: in vivo, late watergrass (Echinochloa oryzicola); details: AAH 320 g/ha; application during weed generation, submerged conditions
# Outline: as §4
# [11] = system: barnyard grass; assay: Test Example 4: herbicidal effect by soil treatment (Table 19, symbol H); assay type: in vivo, barnyard grass (Echinochloa crus-galli); details: amount of applied herbicide 320 g/ha
# Outline: as §2
# [12] = system: persian speedwell; assay: Test Example 5: herbicidal effect by foliage application, plastic box (Table 20, symbol R); assay type: in vivo, Persian speedwell (Veronica persica); details: for R: persian speedwell, herbicidal effect grade: foliage application, 320 g/ha, three weeks after application
# Outline: as §1
# [13] = system: velvetleaf; assay: Test Example 4: herbicidal effect by soil treatment (Table 19, symbol M); assay type: in vivo, velvetleaf (Abutilon theophrasti); details: amount of applied herbicide 320 g/ha
# Outline: as §2
# [14] = system: windgrass; assay: Test Example 4: herbicidal effect by soil treatment (Table 19, symbol L); assay type: in vivo, windgrass (Apera spica-venti); details: amount of applied herbicide 320 g/ha
# Outline: as §2
# [15] = system: Japanese bulrush; assay: Test Example 1: herbicidal activity, application before weed generation under submerged conditions (Table 16, symbol B); assay type: in vivo, Japanese bulrush (Schoenoplectus juncoides); details: amount of applied herbicide 320 g/ha
# Outline: as §3
# [16] = system: chickweed; assay: Test Example 5: herbicidal effect by foliage application, plastic box (Table 20, symbol P); assay type: in vivo, common chickweed (Stellaria media); details: for P: chickweed, herbicidal effect grade: foliage application, 320 g/ha, three weeks after application
# Outline: as §1
# [17] = system: persian speedwell; assay: Test Example 4: herbicidal effect by soil treatment (Table 19, symbol R); assay type: in vivo, Persian speedwell (Veronica persica); details: amount of applied herbicide 320 g/ha
# Outline: as §2
# [18] = amount of applied herbicide 320 g/ha, foliage application after 14-day growth, evaluated three weeks after application
SMILES,herbicidal effect on barnyard grass (H) [1],"P: chickweed, herbicidal effect grade [3]","Herbicidal effect, A: late watergrass [5]","K: Italian ryegrass, herbicidal effect grade [6]","O: lambsquarters, herbicidal effect grade [7]","herbicidal effect rating, C: oval-leafed pondweed [8]","herbicidal effect rating, A: late watergrass [10]","H: barnyard grass, herbicidal effect grade [11]","M: velvetleaf, herbicidal effect grade [13]","L: windgrass, herbicidal effect grade [14]","Herbicidal effect, B: Japanese bulrush [15]","R: persian speedwell, herbicidal effect grade [17]","L: windgrass, herbicidal effect grade [2]","N: redroot pigweed, herbicidal effect grade [4]","G: green foxtail, herbicidal effect grade [9]","R: persian speedwell, herbicidal effect grade [12]","P: chickweed, herbicidal effect grade [16]",other results
CCCC(=O)Oc1c(C)nn(C)c(=O)c1-c1c(-c2ccc(C#N)cc2)sc2cc(F)c(F)cc12 [5-026],3 (Herbicidal rate of 40% or more and less than 70%),0 (Herbicidal rate of 5% or less (almost no effect)),3 (Herbicidal rate of 40% or more and less than 70%),0 (Herbicidal rate of 5% or less (almost no effect)),4 (Herbicidal rate of 70% or more and less than 90%),0 (Herbicidal rate of 5% or less (almost no effect)),2 (Herbicidal rate of 20% or more and less than 40%),0 (Herbicidal rate of 5% or less (almost no effect)),0 (Herbicidal rate of 5% or less (almost no effect)),0 (Herbicidal rate of 5% or less (almost no effect)),0 (Herbicidal rate of 5% or less (almost no effect)),4 (Herbicidal rate of 70% or more and less than 90%),–,–,–,–,–,"Herbicidal effect by foliage application, L: windgrass [2, 18]: 0 (Herbicidal rate of 5% or less (almost no effect)); Herbicidal effect by foliage application, N: redroot pigweed [4, 18]: 2 (Herbicidal rate of 20% or more and less than 40%); Herbicidal effect by foliage application, G: green foxtail [9, 18]: 0 (Herbicidal rate of 5% or less (almost no effect)); Herbicidal effect by foliage application, R: persian speedwell [12, 18]: 4 (Herbicidal rate of 70% or more and less than 90%); Herbicidal effect by foliage application, P: chickweed [16, 18]: 5 (Herbicidal rate of 90% or more (almost completely withered))"
COc1cc(F)ccc1-c1sc2cc(F)ccc2c1-c1c(O)c(C)nn(C)c1=O [3-009],–,–,1 (Herbicidal rate of 5% or more and less than 20%),–,–,3 (Herbicidal rate of 40% or more and less than 70%),0 (Herbicidal rate of 5% or less (almost no effect)),–,–,–,3 (Herbicidal rate of 40% or more and less than 70%),–,5 (Herbicidal rate of 90% or more (almost completely withered)),5 (Herbicidal rate of 90% or more (almost completely withered)),5 (Herbicidal rate of 90% or more (almost completely withered)),5 (Herbicidal rate of 90% or more (almost completely withered)),5 (Herbicidal rate of 90% or more (almost completely withered)),"herbicidal effect on H: barnyard grass ([1]; amount of applied herbicide 320 g/ha): 5 (Herbicidal rate of 90% or more (almost completely withered)); herbicidal effect, P: chickweed [3]: 4 (Herbicidal rate of 70% or more and less than 90%); herbicidal effect, K: Italian ryegrass [6]: 4 (Herbicidal rate of 70% or more and less than 90%); herbicidal effect, O: lambsquarters [7]: 5 (Herbicidal rate of 90% or more (almost completely withered)); herbicidal effect, H: barnyard grass [11]: 5 (Herbicidal rate of 90% or more (almost completely withered)); herbicidal effect, M: velvetleaf [13]: 3 (Herbicidal rate of 40% or more and less than 70%); herbicidal effect, L: windgrass [14]: 5 (Herbicidal rate of 90% or more (almost completely withered)); herbicidal effect, R: persian speedwell [17]: 5 (Herbicidal rate of 90% or more (almost completely withered))"
COc1ccccc1-c1sc2cc(OCc3ccccc3)ccc2c1-c1c(O)c(C)nn(C)c1=O [3-118],4 (Herbicidal rate of 70% or more and less than 90%),0 (Herbicidal rate of 5% or less (almost no effect)),3 (Herbicidal rate of 40% or more and less than 70%),3 (Herbicidal rate of 40% or more and less than 70%),1 (Herbicidal rate of 5% or more and less than 20%),0 (Herbicidal rate of 5% or less (almost no effect)),1 (Herbicidal rate of 5% or more and less than 20%),0 (Herbicidal rate of 5% or less (almost no effect)),0 (Herbicidal rate of 5% or less (almost no effect)),3 (Herbicidal rate of 40% or more and less than 70%),3 (Herbicidal rate of 40% or more and less than 70%),5 (Herbicidal rate of 90% or more (almost completely withered)),5 (Herbicidal rate of 90% or more (almost completely withered)),5 (Herbicidal rate of 90% or more (almost completely withered)),3 (Herbicidal rate of 40% or more and less than 70%),5 (Herbicidal rate of 90% or more (almost completely withered)),3 (Herbicidal rate of 40% or more and less than 70%),–
CCOc1cc(F)ccc1-c1sc2cc(C)ccc2c1-c1c(O)c(C)nn(C)c1=O [3-057],5 (Herbicidal rate of 90% or more (almost completely withered)),5 (Herbicidal rate of 90% or more (almost completely withered)),5 (Herbicidal rate of 90% or more (almost completely withered)),2 (Herbicidal rate of 20% or more and less than 40%),5 (Herbicidal rate of 90% or more (almost completely withered)),3 (Herbicidal rate of 40% or more and less than 70%),4 (Herbicidal rate of 70% or more and less than 90%),4 (Herbicidal rate of 70% or more and less than 90%),2 (Herbicidal rate of 20% or more and less than 40%),5 (Herbicidal rate of 90% or more (almost completely withered)),5 (Herbicidal rate of 90% or more (almost completely withered)),5 (Herbicidal rate of 90% or more (almost completely withered)),5 (Herbicidal rate of 90% or more (almost completely withered)),5 (Herbicidal rate of 90% or more (almost completely withered)),5 (Herbicidal rate of 90% or more (almost completely withered)),5 (Herbicidal rate of 90% or more (almost completely withered)),5 (Herbicidal rate of 90% or more (almost completely withered)),–
CCCC(=O)Oc1c(C)nn(C)c(=O)c1-c1c(-c2ccc(F)cc2OCC)sc2cc(C)ccc12 [3-058],5 (Herbicidal rate of 90% or more (almost completely withered)),4 (Herbicidal rate of 70% or more and less than 90%),5 (Herbicidal rate of 90% or more (almost completely withered)),0 (Herbicidal rate of 5% or less (almost no effect)),5 (Herbicidal rate of 90% or more (almost completely withered)),4 (Herbicidal rate of 70% or more and less than 90%),4 (Herbicidal rate of 70% or more and less than 90%),0 (Herbicidal rate of 5% or less (almost no effect)),5 (Herbicidal rate of 90% or more (almost completely withered)),5 (Herbicidal rate of 90% or more (almost completely withered)),5 (Herbicidal rate of 90% or more (almost completely withered)),4 (Herbicidal rate of 70% or more and less than 90%),5 (Herbicidal rate of 90% or more (almost completely withered)),4 (Herbicidal rate of 70% or more and less than 90%),5 (Herbicidal rate of 90% or more (almost completely withered)),5 (Herbicidal rate of 90% or more (almost completely withered)),5 (Herbicidal rate of 90% or more (almost completely withered)),–
